Experimental data taken from patent publication US20200368247A1, “CENICRIVIROC FOR THE TREATMENT OF FIBROSIS” (Tobira Therapeutics, Inc., priority 2014, published 2020).

Legend:
[1] = Study 202 fasting metabolic laboratory parameters; format: in vivo, human
Excerpt: All abnormalities in total cholesterol, LDL cholesterol, triglycerides, or glucose were Grade 1 or Grade 2.
Mean baseline values and changes from baseline in HbA1c, HOMA-IR, fasting LDL, fasting HDL, fasting total cholesterol, fasting total cholesterol/HDL ratio, and fasting triglycerides are shown in Table 36.

[2] = Excerpt: Subjects with a history of HIV-2, hepatitis B and/or C, cirrhosis of the liver or any known active or chronic active liver disease were excluded from the study.
Most AEs were mild or moderate (Grade 1 or Grade 2). […] None of the Grade ≥3 AEs (preferred terms) were reported in more than 1 subject. Table 28 provides an overview of deaths, SAES, AEs, AEs by severity, AEs related to study medication, and AE leading to discontinuation.

[3] = All CVC (N = 115), EFV (N = 28), through Week 48

In the case of `O=C1Nc2ccc(Cl)cc2[C@@](C#CC2CC2)(C(F)(F)F)O1` [EFV, efavirenz, reference compound], the “Any fasting laboratory abnormality, worst Grade 1” value [1, 3] is reported as 6 (21%) n (%), the “Any fasting laboratory abnormality, worst Grade 2” value [1, 3] is reported as 3 (11%) n (%) and the “Any fasting laboratory abnormality, worst Grade 3” value [1, 3] is reported as 0 n (%). For the same molecule, the “Any fasting laboratory abnormality, worst Grade 4” value [1, 3] was 0 n (%), the “Any graded (Grade 1-4) fasting laboratory abnormality” value [1, 3] was 9 (32%) n (%) and the “Fasting LDL cholesterol abnormality, Grade 1” value [1, 3] was 3 (11%) n (%). For the same molecule, the “Fasting LDL cholesterol abnormality, Grade 2” value [1, 3] was 3 (11%) n (%), the “Fasting LDL cholesterol abnormality, Grade 3” value [1, 3] was 0 n (%) and the “Fasting LDL cholesterol abnormality, Grade 4” value [1, 3] was 0 n (%). The “Fasting LDL cholesterol abnormality, any grade” value [1, 3] was 6 (21%) n (%), the “Fasting glucose (serum, high) abnormality, Grade 1” value [1, 3] was 2 (7%) n (%) and the “Fasting glucose (serum, high) abnormality, Grade 2” value [1, 3] was 0 n (%). For the same molecule, the “Fasting glucose (serum, high) abnormality, Grade 3” value [1, 3] was 0 n (%), the “Fasting glucose (serum, high) abnormality, Grade 4” value [1, 3] was 0 n (%) and the “Fasting glucose (serum, high) abnormality, any grade” value [1, 3] was 2 (7%) n (%). The “Fasting total cholesterol abnormality, Grade 1” value [1, 3] was 6 (21%) n (%), the “Fasting total cholesterol abnormality, Grade 2” value [1, 3] was 3 (11%) n (%) and the “Fasting total cholesterol abnormality, Grade 3” value [1, 3] was 0 n (%). For the same molecule, the “Fasting total cholesterol abnormality, Grade 4” value [1, 3] was 0 n (%), the “Fasting total cholesterol abnormality, any grade” value [1, 3] was 9 (32%) n (%) and the “Fasting triglycerides abnormality, Grade 1” value [1, 3] was 0 n (%). For the same molecule, the “Fasting triglycerides abnormality, Grade 2” value [1, 3] was 0 n (%), the “Fasting triglycerides abnormality, Grade 3” value [1, 3] was 0 n (%) and the “Fasting triglycerides abnormality, Grade 4” value [1, 3] was 0 n (%). For the same molecule, the “Fasting triglycerides abnormality, any grade” value [1, 3] was 0 n (%), the “Fasting HDL, mean change from baseline” value ([1]; All CVC, EFV, Week 4) was 5.90 mg/dL and the “Fasting total cholesterol, mean change from baseline” value ([1]; All CVC, EFV, Week 4) was 19 mg/dL. For the same molecule, the “Fasting total cholesterol/HDL ratio, mean change from baseline” value ([1]; All CVC, EFV, Week 4) was −0.07, the “Fasting triglycerides, mean change from baseline” value ([1]; All CVC, EFV, Week 4) was 23 mg/dL and the “HOMA-IR, mean change from baseline” value ([1]; All CVC, EFV, Week 4) was 0.30. For the same molecule, the “HbA1c, mean change from baseline” value ([1]; All CVC, EFV, Week 4) was −0.01 % Hb, the “Fasting total cholesterol, mean change from baseline” value ([1]; All CVC, EFV, Week 12) was 18 mg/dL and the “Fasting total cholesterol/HDL ratio, mean change from baseline” value ([1]; All CVC, EFV, Week 12) was −0.41. The “Fasting triglycerides, mean change from baseline” value ([1]; All CVC, EFV, Week 12) was 3 mg/dL, the “HOMA-IR, mean change from baseline” value ([1]; All CVC, EFV, Week 12) was 0.06 and the “HbA1c, mean change from baseline” value ([1]; All CVC, EFV, Week 12) was −0.07 % Hb. For the same molecule, the “Fasting total cholesterol, mean change from baseline” value ([1]; All CVC, EFV, Week 24) was 24 mg/dL, the “Fasting total cholesterol/HDL ratio, mean change from baseline” value ([1]; All CVC, EFV, Week 24) was −0.47 and the “Fasting triglycerides, mean change from baseline” value ([1]; All CVC, EFV, Week 24) was 10 mg/dL. For the same molecule, the “HbA1c, mean change from baseline” value ([1]; All CVC, EFV, Week 24) was −0.01 % Hb, the “Fasting total cholesterol, mean change from baseline” value ([1]; All CVC, EFV, Week 48) was 26 mg/dL and the “HOMA-IR, mean change from baseline” value ([1]; All CVC, EFV, Week 48) was −0.12. For the same molecule, the “HbA1c, mean change from baseline” value ([1]; All CVC, EFV, Week 48) was 0.08 % Hb, the “change in LDL cholesterol and HDL cholesterol” value ([1]; EFV, through Week 48) was “increases” and the Deaths ([2]; All CVC (N = 115), EFV (N = 28)) was 0 n. The “SAE: Suicidal ideation” value [2, 3] was 1 n, the “Grade 3 or 4 AE: Suicidal ideation” value ([2]; All CVC (N = 115), EFV (N = 28; Grade 4 event)) was 1 n and the “AE leading to discontinuation: Abnormal dreams” value ([2]; human, in vivo, 48 week) was 1 n. The “AE leading to discontinuation: Aggression” value ([2]; human, in vivo, 48 week) was 0 n, the “AE leading to discontinuation: Anxiety” value ([2]; human, in vivo, 48 week) was 1 n and the “AE leading to discontinuation: Depression” value ([2]; human, in vivo, 48 week) was 1 n. For the same molecule, the “AE leading to discontinuation: Dermatitis allergic” value ([2]; human, in vivo, 48 week) was 1 n, the “AE leading to discontinuation: Ear and labyrinth disorders” value ([2]; human, in vivo, 48 week) was 1 n and the “AE leading to discontinuation: Insomnia” value ([2]; human, in vivo, 48 week) was 3 n. For the same molecule, the “AE leading to discontinuation: Psychiatric disorders” value ([2]; human, in vivo, 48 week) was 3 n, the “AE leading to discontinuation: Rash” value ([2]; human, in vivo, 48 week) was 1 n and the “AE leading to discontinuation: Skin and subcutaneous tissue disorders” value ([2]; human, in vivo, 48 week) was 2 n. The “AE leading to discontinuation: Tachyphrenia” value ([2]; human, in vivo, 48 week) was 1 n, the “AE leading to discontinuation: Thinking abnormal” value ([2]; human, in vivo, 48 week) was 0 n and the “AE leading to discontinuation: Tinnitus” value ([2]; human, in vivo, 48 week) was 1 n. For the same molecule, the “Depression, %” value ([2]; human, in vivo, 48 week) was “(11%)” and the “Diarrhoea, %” value ([2]; human, in vivo, 48 week) was “(11%)”.
